The values below come from patent US12725435B2, “FIM-CNN for detection of viable cells and/or particulate impurities” (Coriolis Pharma Research GmbH, priority 2021, dated 2026).

Each structure is given as a SMILES string.

The test system of series [1] is Jurkat cells. The series is described as follows: Annexin V-FITC / PI fluorescence-based flow cytometry assay (apoptosis, necrosis). As to the method: (§1) Cell apoptosis and necrosis were determined by imaging flow cytometry after labelling of the cells with FITC and PI. Sample preparation was carried out according to the Dead Cell Apoptosis Kit instructions. After incubation for 15 min in the dark at room temperature samples were kept on wet ice until analysis. After adjusting the excitation power of the FlowSight imaging flow cytometer to 4 mW, the same instrument settings as described in for the calcein-AM assay above was used. Brightfield as well as fluorescence images in channels 02 (532/55 nm) for FITC and channel 4 (610/30 nm) for PI were recorded. Appropriate morphological filters based on mean intensity, area, aspect ratio and modulation from channel 09 were applied to discriminate between single cells and cell aggregates or debris particles. Once single cells were selected based on brightfield images, mean intensity values from channel 02 (fluorescence) were plotted against the particle area (erode mask) where the positively stained cells were classified as viable.
For selection of necrotic cells, two separate methods were used to induce cell necrosis. […] Images of debris particles were manually selected from measured suspensions of cells submitted to vortexing for approximately 2 min or two freeze-thaw cycles (−140° C.-37° C.).
On the technique in general: A flow cytometer gives signals particle by particle.

Series [2] deals with Jurkat cells. As to the kind of experiment: in vitro.
Description: (§2) Generation of particle images for population discrimination. The CNN was retrained on manually labelled images (4,000-4,500) of each of the three populations: viable cells, necrotic cells and debris particles. […] For selection of necrotic cells, two separate methods were used to induce cell necrosis. […] In order to further define image populations of viable and necrotic cells for the network fine-tuning, morphological parameters, such as aspect ratio, circle fit, convexity, sigma intensity and symmetry, of the two populations were used. Only particles (cells) of morphological parameter values falling between the 10th and 90th percentile of the manually selected population as viable and necrotic cells were taken for input to the training of the model. Images of debris particles were manually selected from measured suspensions of cells submitted to vortexing for approximately 2 min or two freeze-thaw cycles (−140° C.-37° C.).
as §1

A short description of series [3]: calcein-AM assay of cell viability (imaging flow cytometry). In kind it is cell-based. As to conditions: human, Jurkat cells; irrespective of DMSO content (2.5%, 5%, 10% v/v) and time point (T0, freeze-thaw, control). As to the method: Freeze-thaw stress. DMSO, cooled on wet ice, was slowly added to cell suspensions (placed on wet ice) to reach a target concentration 1%, 2.5%, 5% and 10% (v/v) at a cell concentration of 1×10^6 cells/ml. Further, five 1-ml aliquots were prepared in 1.8-ml Nalgene cryovials, which were submitted to freezing at −18° C. for 3 hours. This amount of time was sufficient for complete freezing of the aliquots. Prior to analysis, the samples were thawed for 2 min at 37° C., pooled and washed with fresh RPMI medium. Control samples were stored at 20° C. for 3 hours and were otherwise treated identically as the freeze-thawed samples.
Imaging flow cytometry. To assess cell viability based on cell metabolism, imaging flow cytometry was used in combination with the membrane-permeable dye calcein-AM (calcein-AM assay), at a final concentration of 6.3 nM in the sample to be analyzed. […] Subsequently, samples were analyzed by using an Amnis FlowSight imaging flow cytometer (Luminex, Seattle, USA) and data was analyzed using IDEAS 6.2.183 (Luminex, Seattle, USA) image analysis software. […] The side scatter laser was set to 10 mW and the 488 nm fluorescence excitation laser was set to 12 mW. Images of the calcein-AM stained cells were recorded in channel 02 (532/55 nm). […]

The subject of series [4] is Jurkat cells. As to the kind of experiment: FIM-CNN (FlowCam) cell counts and viability after forced degradation. Format: cell-based. The method, then:
Freeze-thaw stress. […] Further, five 1-ml aliquots were prepared in 1.8-ml Nalgene cryovials, which were submitted to freezing at −18° C. for 3 hours. This amount of time was sufficient for complete freezing of the aliquots. Prior to analysis, the samples were thawed for 2 min at 37° C., pooled and washed with fresh RPMI medium. Control samples were stored at 20° C. for 3 hours and were otherwise treated identically as the freeze-thawed samples. Shaking stress. […] The cryovials were submitted to shaking by constant horizontal agitation at 185 rpm at 25° C. by using an IC 4000 shaker (IKA, Germany). Analysis of cell suspensions of pooled cell aliquots was performed following 3 hours of shaking. Control samples were stored statically and protected from light at 25° C. in cryovials, and subsequently pooled. Flow imaging microscopy (FlowCam, FIM). Cells (viable and necrotic) and debris particles were quantified by using a FlowCam 8100 (Fluid Imaging Technologies, Scarborough, USA) equipped with a 50-μflow cell. […] In total, a sample volume of 140 μL was measured with an efficiency of approximately 63% (i.e., the imaged sample volume was ca. 87 μL). Particles imaged within the flow cell were detected with intensity thresholds of 12 for light and dark pixels. […] Collected images were not sorted by using any morphological filters and samples were measured in triplicate, unless otherwise stated. Image analysis using convolutional neural networks. Particle images captured by using FlowCam were analyzed by using convolutional neural networks (CNN). […] Briefly, the VGG-19 network using rectified linear unit activation functions, punctuated with max-pooling and dropout layers, was pre-trained on the ImageNet dataset (http://image-netorg). The re-training of the network was performed with the first ten layers frozen in order to save computation time and improve accuracy of the model by preserving its pre-learned feature recognition capabilities. For fine-tuning the dataset was split into an 8:1:1 ratio for training, validation and testing, respectively. […]

Another series in a line: in vitro. As to conditions: human.
Description: as §2, §1

[5] abbreviates: cell suspensions frozen with 2.5% (v/v) DMSO.
[6] abbreviates: staurosporin 1 μM to 500.000 cells/mL, Annexin V-FITC & PI double staining.

Turning to `C[S+](C)[O-]` [DMSO, dimethyl sulfoxide], the “increase in apoptotic cell content” value in the series with Jurkat cells [1] (human, 3 h) is given as around 2 fold. The “toxic effects of DMSO (PI assay)” value in the series with Jurkat cells [2] is listed as “loss of cell viability”. For the same compound, in the series with Jurkat cells [2] (5% and 10% (v/v) DMSO, freeze-thawed and control samples compared to T0), the “drop in cell viability (PI assay)” value is listed as “ca. 10%”. In the series with Jurkat cells [2] (setting [5]), the “losses in viability (PI assay)” value was “ca. 20%”. The viability in series [3] is 85 to 90%. For the same compound, the “reduction of cell counts” value in the series with Jurkat cells [4] (0% and 1% (v/v) DMSO, one freeze-thaw cycle (−18° C. 3 hours, thawing 2 min at 37° C.)) is on record as above 98%. The “losses in viability (FIM-CNN assay)” value in the series on Jurkat cells [4] (setting [5]) is “ca. 20%”. Besides, in the series with Jurkat cells [4] (exposure of 3 hours at RT, 10% (v/v)), the “toxic effects of DMSO (FIM)” value is reported as “loss of cell viability”.

In the series “in vitro”, `CCO` [ethanol, reference compound] displayed a viability at 90 min, 10 % (v/v) of 12.8%.

For `CN[C@@H]1C[C@H]2O[C@@](C)([C@@H]1OC)n1c3ccccc3c3c4c(c5c6ccccc6n2c5c31)C(=O)NC4` [staurosporin], in the series with Jurkat cells [1] (setting [6]), the necrotic cells result is listed as “around 6%” and the viable cells is ~ 2%.

Usually viability stands for a read-out of living cells in per cent, often relative to untreated cells.
